According to patent US8741899B2, “(4-chloro-2-fluoro-N-(2-fluorophenyl)-5-[(8aR)-hexahydropyrrolo-[1,2-a]pyrazin-2(1H)-ylcarbonyl]-benzenesulfonamide, and pharmaceutically acceptable salts thereof” (AbbVie Inc., priority 2009, dated 2014):

Biological target: T1, Human Cav3.2 Channels (Homo sapiens, UniProt O95180)
T1 construct: expressed in transfected cells
Assay: Electrophysiologic (whole-cell patch-clamp) assessment of calcium channel activity in HEK293 cells stably expressing hCav3.2
Assay type: cell-based
Conditions: −77 mV, geometric mean, read-out: Human Cav3.2 −77 mV IC50 (μM) GeoMean
Procedure: (i) In Vitro Methods—Electrophysiologic Assessment of Calcium Channel Activity:
Patch-clamp recordings were performed using HEK293 cells stably expressing hCav3.2. Cells were plated in T175 flasks and grown at 37° C. and under 5% CO2 to approximately 50% confluency. On the day of the experiment, cells were harvested with Detachin™ cell detachment solution (Genlantis, San Diego, Calif.) and maintained in serum-free culture medium supplemented with 25 mM HEPES up to several hours prior to experiment. Whole-cell patch-clamp recordings were obtained using extracellular saline consisting of (mM): 87.5 CsCl, 40 TEA-Cl, 5 CaCl2, 1 MgCl2, 10 HEPES, 10 glucose. The pH was adjusted to 7.2 with CsOH and the osmolarity was adjusted to approximately 310 mOsm with sucrose. Intracellular solution consisted of (mM): 112 CsCl, 27 CsF, 2 NaCl, 8.2 EGTA, 10 HEPES. Prior to an experiment 4 mM Mg2ATP was added and the pH was adjusted to 7.2 with CsOH with an osmolarity of approximately 290 mOsm. A two-pulse voltage protocol was utilized to assess compound inhibition. First, cells were held with an 8 s pre-pulse at −100 mV prior to a 160 ms test pulse to −30 mV. This was followed by an 8 s pre-pulse at approximately −75 mV prior to a […]. Increasing concentrations of antagonist were applied to individual cells in a multi-addition format with 5 minutes in each test concentration. For each cell, responses were normalized to dimethyl sulfoxide vehicle control to generate concentration-response curves.

T1 sequence (O95180 whole entry): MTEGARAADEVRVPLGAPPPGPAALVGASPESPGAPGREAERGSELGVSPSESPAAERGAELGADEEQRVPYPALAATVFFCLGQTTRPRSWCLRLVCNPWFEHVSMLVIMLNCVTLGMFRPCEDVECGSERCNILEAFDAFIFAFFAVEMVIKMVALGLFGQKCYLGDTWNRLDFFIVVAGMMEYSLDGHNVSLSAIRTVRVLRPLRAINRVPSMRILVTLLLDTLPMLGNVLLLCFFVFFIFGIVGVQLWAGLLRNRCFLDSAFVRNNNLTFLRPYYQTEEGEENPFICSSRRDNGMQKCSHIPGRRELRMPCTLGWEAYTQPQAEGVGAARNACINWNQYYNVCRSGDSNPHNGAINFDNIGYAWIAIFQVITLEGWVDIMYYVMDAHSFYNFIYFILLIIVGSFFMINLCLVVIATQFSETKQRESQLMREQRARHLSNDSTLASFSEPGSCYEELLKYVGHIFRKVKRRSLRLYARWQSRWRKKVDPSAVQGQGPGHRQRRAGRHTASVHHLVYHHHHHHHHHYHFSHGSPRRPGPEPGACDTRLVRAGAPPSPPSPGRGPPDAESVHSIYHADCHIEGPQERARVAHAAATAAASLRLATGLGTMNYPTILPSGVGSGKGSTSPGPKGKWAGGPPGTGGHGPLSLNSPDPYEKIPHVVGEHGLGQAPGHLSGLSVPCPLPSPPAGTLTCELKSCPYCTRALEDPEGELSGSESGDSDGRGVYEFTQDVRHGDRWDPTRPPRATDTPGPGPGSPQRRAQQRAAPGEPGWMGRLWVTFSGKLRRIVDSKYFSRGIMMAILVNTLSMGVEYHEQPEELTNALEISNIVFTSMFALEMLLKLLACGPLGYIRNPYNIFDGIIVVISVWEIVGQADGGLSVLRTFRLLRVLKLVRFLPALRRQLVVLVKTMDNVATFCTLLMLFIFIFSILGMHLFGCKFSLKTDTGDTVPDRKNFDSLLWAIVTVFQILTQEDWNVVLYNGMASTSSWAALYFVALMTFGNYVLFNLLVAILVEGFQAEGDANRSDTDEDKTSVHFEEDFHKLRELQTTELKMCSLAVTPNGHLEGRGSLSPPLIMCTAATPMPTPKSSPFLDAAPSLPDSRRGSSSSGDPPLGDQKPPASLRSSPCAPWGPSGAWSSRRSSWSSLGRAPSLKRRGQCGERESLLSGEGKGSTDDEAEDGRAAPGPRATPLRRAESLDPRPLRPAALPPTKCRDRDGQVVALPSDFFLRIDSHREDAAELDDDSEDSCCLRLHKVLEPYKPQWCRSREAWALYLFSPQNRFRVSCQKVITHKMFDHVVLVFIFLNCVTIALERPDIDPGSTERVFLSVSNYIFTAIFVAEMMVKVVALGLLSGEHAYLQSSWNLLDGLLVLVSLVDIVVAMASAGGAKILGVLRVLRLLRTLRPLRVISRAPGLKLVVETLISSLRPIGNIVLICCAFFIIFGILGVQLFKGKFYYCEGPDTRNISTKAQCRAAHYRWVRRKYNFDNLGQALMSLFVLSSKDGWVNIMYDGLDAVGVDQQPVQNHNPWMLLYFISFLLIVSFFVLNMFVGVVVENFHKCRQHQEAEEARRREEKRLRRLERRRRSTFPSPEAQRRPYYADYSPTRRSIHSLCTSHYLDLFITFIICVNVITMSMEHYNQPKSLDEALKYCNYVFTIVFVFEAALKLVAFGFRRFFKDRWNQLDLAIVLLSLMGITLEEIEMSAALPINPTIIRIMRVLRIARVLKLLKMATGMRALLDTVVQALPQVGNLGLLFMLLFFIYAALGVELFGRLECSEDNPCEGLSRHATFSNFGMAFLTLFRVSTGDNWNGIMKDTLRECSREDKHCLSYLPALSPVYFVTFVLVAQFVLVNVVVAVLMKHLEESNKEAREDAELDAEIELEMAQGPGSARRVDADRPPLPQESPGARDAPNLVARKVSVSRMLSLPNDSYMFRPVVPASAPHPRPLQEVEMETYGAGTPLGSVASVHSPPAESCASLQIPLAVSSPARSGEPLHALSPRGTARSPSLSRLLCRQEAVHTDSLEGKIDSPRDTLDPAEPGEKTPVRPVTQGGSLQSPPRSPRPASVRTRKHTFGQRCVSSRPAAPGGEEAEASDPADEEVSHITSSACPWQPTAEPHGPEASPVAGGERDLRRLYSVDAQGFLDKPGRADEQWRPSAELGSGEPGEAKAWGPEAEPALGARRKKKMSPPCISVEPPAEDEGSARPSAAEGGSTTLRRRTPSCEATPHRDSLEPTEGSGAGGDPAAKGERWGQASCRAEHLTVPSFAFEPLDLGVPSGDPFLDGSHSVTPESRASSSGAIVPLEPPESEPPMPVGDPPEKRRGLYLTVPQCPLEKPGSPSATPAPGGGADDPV

| Structure (SMILES) | IC50 |
| --- | --- |
| O=C(c1cccc(S(=O)(=O)N2CCN(C(c3ccc(F)cc3)c3ccc(F)cc3)CC2)c1)N1CCN2CCC[C@H]2C1 [Example 23, (8aS)-2-[3-({4-[bis(4-fluorophenyl)methyl]piperazin-1-yl}sulfonyl)benzoyl]octahydropyrrolo[1,2-a]pyrazine] | 2.5 µM |
| O=C(c1cccc(S(=O)(=O)Nc2ccccc2C(F)(F)F)c1)N1CCN2CCC[C@H]2C1 [Example 19, 3-[(8aS)-hexahydropyrrolo[1,2-a]pyrazin-2(1H)-ylcarbonyl]-N-[2-(trifluoromethyl)phenyl]benzenesulfonamide] | 2.4 µM |
| O=C(c1cccc(S(=O)(=O)Nc2ccc(F)cc2)c1)N1CCC(N2CCCCC2)CC1 [Example 46, 3-(1,4′-bipiperidin-1′-ylcarbonyl)-N-(4-fluorophenyl)benzenesulfonamide] | 1.8 µM |
| O=C(c1cccc(S(=O)(=O)Nc2ccc(C(F)(F)F)cc2)c1)N1CCN2CCC[C@H]2C1 [Example 8, 3-[(8aS)-hexahydropyrrolo[1,2-a]pyrazin-2(1H)-ylcarbonyl]-N-[4-(trifluoromethyl)phenyl]benzenesulfonamide] | 2.1 µM |
| O=C(c1cccc(S(=O)(=O)NCCc2ccc(F)cc2)c1)N1CCN2CCC[C@H]2C1 [Example 33, N-[2-(4-fluorophenyl)ethyl]-3-[(8aS)-hexahydropyrrolo[1,2-a]pyrazin-2(1H)-ylcarbonyl]benzenesulfonamide] | 5.7 µM |
| O=C(NCC(c1ccccc1)c1ccccc1)c1cccc(S(=O)(=O)N2CCN3CCC[C@H]3C2)c1 [Example 53, N-(2,2-diphenylethyl)-3-[(8aS)-hexahydropyrrolo[1,2-a]pyrazin-2(1H)-ylsulfonyl]benzamide] | 0.5 µM |
| O=C(c1cccc(S(=O)(=O)Nc2cccc(F)c2)c1)N1CCC(N2CCCC2)CC1 [Example 44, N-(3-fluorophenyl)-3-[(4-pyrrolidin-1-ylpiperidin-1-yl)carbonyl]benzenesulfonamide] | 4.9 µM |
| O=C(Nc1ccc(C(=O)N2CCN3CCC[C@@H]3C2)cc1Cl)c1ccc2ccccc2c1 [Example 76, N-{2-chloro-4-[(8aR)-hexahydropyrrolo[1,2-a]pyrazin-2(1H)-ylcarbonyl]phenyl}-2-naphthamide] | 6.4 µM |
| O=C(c1cccc(S(=O)(=O)N2CCN3CCC[C@@H]3C2)c1)N1CCN(C(c2ccccc2)c2ccccc2)CC1 [Example 52, (8aR)-2-({3-[(4-benzhydrylpiperazin-1-yl)carbonyl]phenyl}sulfonyl)octahydropyrrolo[1,2-a]pyrazine] | 0.6 µM |
| O=C(c1cccc(S(=O)(=O)Nc2ccccc2F)c1)N1CCC(N2CCCC2)CC1 [Example 45, N-(2-fluorophenyl)-3-[(4-pyrrolidin-1-ylpiperidin-1-yl)carbonyl]benzenesulfonamide] | > 10 µM |
| O=C(c1cccc(S(=O)(=O)NCC(c2ccccc2)c2ccccc2)c1)N1CCN2CCC[C@@H]2C1 [Example 26, N-(2,2-diphenylethyl)-3-[(8aR)-hexahydropyrrolo[1,2-a]pyrazin-2(1H)-ylcarbonyl]benzenesulfonamide] | 1.5 µM |
| O=C(c1cccc(S(=O)(=O)Nc2ccc(C(F)(F)F)cc2)c1)N1CCN2CCC[C@@H]2C1 [Example 1, 3-[(8aR)-hexahydropyrrolo[1,2-a]pyrazin-2(1H)-ylcarbonyl]-N-[4-(trifluoromethyl)phenyl]benzenesulfonamide] | > 10 µM |
| O=C(c1cccc(S(=O)(=O)N[C@@H]2C[C@H]2c2ccccc2)c1)N1CCN2CCC[C@H]2C1 [Example 61, 3-[(8aS)-hexahydropyrrolo[1,2-a]pyrazin-2(1H)-ylcarbonyl]-N-[(1R,2S)-2-phenylcyclopropyl]benzenesulfonamide] | > 10 µM |
| O=C(c1cccc(S(=O)(=O)N2CCN(C(c3ccc(F)cc3)c3ccc(F)cc3)CC2)c1)N1CCN2CCC[C@@H]2C1 [Example 22, (8aR)-2-[3-({4-[bis(4-fluorophenyl)methyl]piperazin-1-yl}sulfonyl)benzoyl]octahydropyrrolo[1,2-a]pyrazine] | 1.4 µM |
| CN(c1cccc(C(=O)N2CCN3CCC[C@@H]3C2)c1)S(=O)(=O)c1cccc(C(F)(F)F)c1 [Example 69, N-{3-[(8aR)-hexahydropyrrolo[1,2-a]pyrazin-2(1H)-ylcarbonyl]phenyl}-N-methyl-3-(trifluoromethyl)benzenesulfonamide] | > 10 µM |
| O=C(c1cccc(S(=O)(=O)NCC(c2ccccc2)c2ccccc2)c1)N1CCN2CCC[C@H]2C1 [Example 31, N-(2,2-diphenylethyl)-3-[(8aS)-hexahydropyrrolo[1,2-a]pyrazin-2(1H)-ylcarbonyl]benzenesulfonamide] | 3.3 µM |

The remaining lines, values ahead:

| IC50 | Structure (SMILES) |
| --- | --- |
| 4.1 µM | O=C(c1cccc(S(=O)(=O)Nc2ccccc2F)c1)N1CCN2CCCCC2C1 (centres unmarked) [Example 39, N-(2-fluorophenyl)-3-(octahydro-2H-pyrido[1,2-a]pyrazin-2-ylcarbonyl)benzenesulfonamide] |
| 6 µM | O=C(c1cccc(S(=O)(=O)Nc2ccc(F)cc2F)c1)N1CCN2CCC[C@H]2C1 [Example 16, N-(2,4-difluorophenyl)-3-[(8aS)-hexahydropyrrolo[1,2-a]pyrazin-2(1H)-ylcarbonyl]benzenesulfonamide] |
| > 10 µM | O=C(N[C@H](CO)c1ccccc1)c1cccc(S(=O)(=O)N2CCN3CCC[C@@H]3C2)c1 [Example 81, 3-[(8aR)-hexahydropyrrolo[1,2-a]pyrazin-2(1H)-ylsulfonyl]-N-[(1S)-2-hydroxy-1-phenylethyl]benzamide] |
| 6.5 µM | O=C(c1cccc(S(=O)(=O)Nc2cccc(F)c2)c1)N1CCN2CCC[C@@H]2C1 [Example 7, N-(3-fluorophenyl)-3-[(8aR)-hexahydropyrrolo[1,2-a]pyrazin-2(1H)-ylcarbonyl]benzenesulfonamide] |
| 8.9 µM | O=C(c1cccc(S(=O)(=O)Nc2cccc(Cl)c2)c1)N1CCN2CCC[C@@H]2C1 [Example 25, N-(3-chlorophenyl)-3-[(8aR)-hexahydropyrrolo[1,2-a]pyrazin-2(1H)-ylcarbonyl]benzenesulfonamide] |
| 8.4 µM | O=C(c1cc(S(=O)(=O)Nc2ccc(C(F)(F)F)cc2)ccc1Cl)N1CCN2CCC[C@@H]2C1 [Example 32, 4-chloro-3-[(8aR)-hexahydropyrrolo[1,2-a]pyrazin-2(1H)-ylcarbonyl]-N-[4-(trifluoromethyl)phenyl]benzenesulfonamide] |
| > 10 µM | O=C(NC1CC1)c1cc(S(=O)(=O)N2CCN3CCC[C@H]3C2)c(F)cc1Cl [Example 83, 2-chloro-N-cyclopropyl-4-fluoro-5-[(8aS)-hexahydropyrrolo[1,2-a]pyrazin-2(1H)-ylsulfonyl]benzamide] |
| 9 µM | O=C(c1cc(S(=O)(=O)NCCC(c2ccccc2)c2ccccc2)c(F)cc1Cl)N1CCN2CCC[C@H]2C1 [Example 59, 4-chloro-N-(3,3-diphenylpropyl)-2-fluoro-5-[(8aS)-hexahydropyrrolo[1,2-a]pyrazin-2(1H)-ylcarbonyl]benzenesulfonamide] |
| 9.3 µM | O=C(c1cccc(S(=O)(=O)Nc2ccc(F)cc2F)c1)N1CCN2CCC[C@@H]2C1 [Example 18, N-(2,4-difluorophenyl)-3-[(8aR)-hexahydropyrrolo[1,2-a]pyrazin-2(1H)-ylcarbonyl]benzenesulfonamide] |
| > 10 µM | O=C(c1cccc(S(=O)(=O)Nc2cc(F)ccc2F)c1)N1CCN2CCC[C@@H]2C1 [Example 15, N-(2,5-difluorophenyl)-3-[(8aR)-hexahydropyrrolo[1,2-a]pyrazin-2(1H)-ylcarbonyl]benzenesulfonamide] |
| 7.7 µM | O=C(c1cccc(S(=O)(=O)Nc2c(F)cccc2F)c1)N1CCN2CCC[C@H]2C1 [Example 4, N-(2,6-difluorophenyl)-3-[(8aS)-hexahydropyrrolo[1,2-a]pyrazin-2(1H)-ylcarbonyl]benzenesulfonamide] |
| 4.1 µM | O=C(NCCc1ccc(F)cc1)c1cccc(S(=O)(=O)N2CCN3CCC[C@H]3C2)c1 [Example 56, N-[2-(4-fluorophenyl)ethyl]-3-[(8aS)-hexahydropyrrolo[1,2-a]pyrazin-2(1H)-ylsulfonyl]benzamide] |
| 6.2 µM | O=C(c1ccc(Cl)c(S(=O)(=O)Nc2ccc(C(F)(F)F)cc2)c1)N1CCN2CCC[C@@H]2C1 [Example 34, 2-chloro-5-[(8aR)-hexahydropyrrolo[1,2-a]pyrazin-2(1H)-ylcarbonyl]-N-[4-(trifluoromethyl)phenyl]benzenesulfonamide] |
